Measured values published in ChEMBL document CHEMBL1201862, “PubChem BioAssay data set” (2004).
The source made the active and inactive calls.

Key:
[1] = target: Ephrin type-A receptor 4 (Mus musculus, UniProt Q03137); experiment: inhibitors of EphA4 binding to KYL peptide, primary screen, biochemical, colorimetric, mouse EphA4 (AID 689); type: functional
[2] = tested on: H9c2; experiment: cells; type: functional, cell-based; conditions: Rattus norvegicus, H9c2, Myocardium;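 note: confirmatory concentration-response retest of ultra-high-throughput screening hits for modulation of myocardial damage; cell death induced by hydrogen peroxide oxidative stress; compound pretreatment for 60 min then peroxide exposure for 2 h; potency is for protecting the cells against peroxide damage rather than for killing them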
[3] = target: Paired box protein Pax-8 (Homo sapiens, UniProt Q06710); experiment: inhibitors of PAX8-driven TPO luciferase reporter, dose response, RMG-I cells, cherry-pick (AID 687027); type: functional, cell-based;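 note: luciferase reporter driven by Pax8 target thyroperoxidase promoter measured by SteadyGlo luminescence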
Paired box protein Pax-8, sequence (Q06710 whole entry): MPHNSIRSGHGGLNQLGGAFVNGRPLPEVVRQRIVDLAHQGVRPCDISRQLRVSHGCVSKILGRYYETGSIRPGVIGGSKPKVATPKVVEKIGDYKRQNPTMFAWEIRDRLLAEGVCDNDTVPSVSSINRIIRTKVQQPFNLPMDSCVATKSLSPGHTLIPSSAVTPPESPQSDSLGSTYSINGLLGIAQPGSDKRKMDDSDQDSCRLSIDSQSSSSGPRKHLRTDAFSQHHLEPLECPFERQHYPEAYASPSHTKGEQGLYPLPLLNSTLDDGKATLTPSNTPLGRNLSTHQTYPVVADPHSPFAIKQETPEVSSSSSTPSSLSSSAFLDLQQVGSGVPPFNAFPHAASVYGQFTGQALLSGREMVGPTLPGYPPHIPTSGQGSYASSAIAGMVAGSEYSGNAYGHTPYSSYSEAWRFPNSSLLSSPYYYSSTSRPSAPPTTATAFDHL

[4] = IOSE-T80 ovarian epithelial cell cytotoxicity, dose response, cytotoxicity control for PAX8 inhibitor project, plate reader, dry powder samples (AID 743045); type: functional, cell-based
[5] = NIH:OVCAR-3 ovarian cancer cell cytotoxicity, dose response, PAX8 inhibitor project, plate reader, dry powder samples (AID 743044); type: functional, cell-based
[6] = IGROV1 ovarian cancer cell cytotoxicity, dose response, PAX8 inhibitor project, plate reader, dry powder samples (AID 743043); type: functional, cell-based; conditions: IGROV-1
[7] = cytotoxicity in OVCAR8 ovarian cancer cells, dose response, PAX8 project, cell-based, plate reader, dry powder samples (AID 743197); type: functional; conditions: OVCAR-8
[8] = target: T1, Oxysterols receptor LXR-beta (Homo sapiens, UniProt P55055); type: functional, cell-based;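 note: Cell-based luminescence dose-response assay of agonist activity at LXR, run as a confirmatory counterscreen to a daf-12 agonist screen; HEK293 cells with Gal4-LXR fusion and GAL4-driven luciferase reporter; agonist potency from rising luciferase signal of a Gal4-LXR reporter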
T1 sequence (P55055 whole entry): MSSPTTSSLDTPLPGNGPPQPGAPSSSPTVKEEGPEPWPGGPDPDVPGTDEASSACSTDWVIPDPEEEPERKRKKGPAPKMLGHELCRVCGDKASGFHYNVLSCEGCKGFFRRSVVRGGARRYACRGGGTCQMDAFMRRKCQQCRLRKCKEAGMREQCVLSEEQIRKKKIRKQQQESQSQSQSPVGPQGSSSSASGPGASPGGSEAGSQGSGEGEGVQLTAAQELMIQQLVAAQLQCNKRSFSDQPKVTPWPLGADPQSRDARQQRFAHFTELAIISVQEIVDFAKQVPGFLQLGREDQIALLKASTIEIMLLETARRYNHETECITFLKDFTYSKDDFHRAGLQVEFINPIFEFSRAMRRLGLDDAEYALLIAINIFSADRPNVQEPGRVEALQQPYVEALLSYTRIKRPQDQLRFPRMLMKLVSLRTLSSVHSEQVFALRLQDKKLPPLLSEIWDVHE

[9] = cells
[10] = target: Luciferin 4-monooxygenase (Photinus pyralis, UniProt P08659); experiment: firefly luciferase enzyme inhibitors, dose response, biochemical, luminescence (AID 1891)
Luciferin 4-monooxygenase, sequence (P08659 whole entry): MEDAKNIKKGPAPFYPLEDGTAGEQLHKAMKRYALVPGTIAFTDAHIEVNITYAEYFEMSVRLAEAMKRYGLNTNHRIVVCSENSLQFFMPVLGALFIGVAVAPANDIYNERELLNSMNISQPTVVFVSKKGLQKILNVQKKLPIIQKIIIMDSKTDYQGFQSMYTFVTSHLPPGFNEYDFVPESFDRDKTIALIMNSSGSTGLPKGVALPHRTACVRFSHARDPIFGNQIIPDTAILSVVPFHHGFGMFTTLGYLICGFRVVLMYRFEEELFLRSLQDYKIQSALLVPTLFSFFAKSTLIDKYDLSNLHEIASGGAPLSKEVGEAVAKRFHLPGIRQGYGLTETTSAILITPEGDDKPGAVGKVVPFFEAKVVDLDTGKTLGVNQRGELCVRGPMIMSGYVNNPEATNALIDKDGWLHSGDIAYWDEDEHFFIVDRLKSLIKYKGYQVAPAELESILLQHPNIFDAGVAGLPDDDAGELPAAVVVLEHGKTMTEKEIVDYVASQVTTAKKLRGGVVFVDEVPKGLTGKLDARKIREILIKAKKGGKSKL

[11] = Luminescence Cell-Based Dose Confirmation HTS to Identify Inhibitors of Platelet Dense Granule Release. [Related pubchem assays: 1663 (Primary HTS), 1678 (Summary of Project)]; type: functional
[12] = target: Kallikrein-7 (Homo sapiens, UniProt P49862); experiment: Fluorescence Intensity-based biochemical primary high throughput dose response assay to identify activators of kallikrein-7 (K7) zymogen.
Kallikrein-7, sequence (P49862 whole entry, the tested form may be a part): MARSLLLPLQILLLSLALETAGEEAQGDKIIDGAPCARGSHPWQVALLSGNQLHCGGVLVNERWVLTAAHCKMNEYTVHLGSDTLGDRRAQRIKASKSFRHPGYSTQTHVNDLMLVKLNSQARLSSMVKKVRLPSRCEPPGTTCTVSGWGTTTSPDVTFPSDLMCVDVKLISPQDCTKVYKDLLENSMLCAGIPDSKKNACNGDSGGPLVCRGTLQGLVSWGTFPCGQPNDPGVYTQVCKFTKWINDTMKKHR

[13] = target: T2, Carboxy-terminal domain RNA polymerase II polypeptide A small phosphatase 1 (Homo sapiens, UniProt Q9GZU7); experiment: inhibitors of CTDSP1, concentration-response testing, biochemical assay, absorbance-based, actives from ultra-high-throughput screening (AID 540297); type: functional
T2 sequence (Q9GZU7 whole entry): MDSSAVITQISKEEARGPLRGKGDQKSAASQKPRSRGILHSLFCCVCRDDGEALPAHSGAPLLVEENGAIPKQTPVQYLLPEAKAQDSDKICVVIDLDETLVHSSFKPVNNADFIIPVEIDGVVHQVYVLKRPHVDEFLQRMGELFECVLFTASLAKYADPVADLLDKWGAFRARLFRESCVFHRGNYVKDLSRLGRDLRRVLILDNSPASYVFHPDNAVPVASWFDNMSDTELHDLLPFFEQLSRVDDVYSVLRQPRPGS

[14] = target: T3, Caspase-6 (Homo sapiens, UniProt P55212); experiment: human caspase-6 inhibitors, dose response, biochemical, VEID-R110 fluorescence, cherry-pick (AID 720632)
T3 sequence (P55212 whole entry): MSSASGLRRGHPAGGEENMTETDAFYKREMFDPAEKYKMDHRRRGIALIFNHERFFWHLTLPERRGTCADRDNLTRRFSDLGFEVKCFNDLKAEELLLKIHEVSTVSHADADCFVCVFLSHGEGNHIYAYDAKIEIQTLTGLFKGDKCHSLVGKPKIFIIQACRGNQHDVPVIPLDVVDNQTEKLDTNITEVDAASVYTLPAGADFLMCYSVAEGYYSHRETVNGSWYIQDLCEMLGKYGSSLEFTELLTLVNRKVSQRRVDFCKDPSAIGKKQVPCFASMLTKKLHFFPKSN

[15] = target: T4, Long-chain-fatty-acid--AMP ligase FadD28 (Mycobacterium tuberculosis, UniProt P9WQ59); experiment: Fluorescence polarization aasay to screen for inhibitors that compete for the binding of FadD28 to a bisubstrate Measured in Biochemical System Using Plate Reader - 2147-01_Inhibitor_Dose_CherryPick_Activity.; type: functional, Mycobacterium tuberculosis H37Rv
T4 sequence (P9WQ59 whole entry): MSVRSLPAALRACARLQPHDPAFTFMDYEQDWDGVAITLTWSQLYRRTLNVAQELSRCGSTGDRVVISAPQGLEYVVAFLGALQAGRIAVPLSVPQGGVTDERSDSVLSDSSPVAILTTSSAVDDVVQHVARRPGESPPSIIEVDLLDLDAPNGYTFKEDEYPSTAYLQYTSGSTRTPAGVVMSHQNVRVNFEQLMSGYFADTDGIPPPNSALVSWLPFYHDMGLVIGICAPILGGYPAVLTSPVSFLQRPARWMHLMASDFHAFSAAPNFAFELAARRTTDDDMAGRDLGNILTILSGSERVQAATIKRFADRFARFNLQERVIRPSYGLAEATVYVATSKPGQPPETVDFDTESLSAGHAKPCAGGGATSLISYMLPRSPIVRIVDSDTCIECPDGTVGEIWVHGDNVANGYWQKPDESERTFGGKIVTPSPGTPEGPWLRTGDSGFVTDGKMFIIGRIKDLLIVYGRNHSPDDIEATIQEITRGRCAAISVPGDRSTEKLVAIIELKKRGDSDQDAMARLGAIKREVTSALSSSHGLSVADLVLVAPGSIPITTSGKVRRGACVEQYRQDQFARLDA

[16] = Artemis endonuclease inhibitor potency, dose response, biochemical, fluorescence intensity (AID 720701); type: functional;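 note: Artemis endonuclease enzyme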
[17] = target: Glucose-6-phosphate 1-dehydrogenase (Homo sapiens, UniProt P11413); experiment: human G6PD enzyme inhibitors, dose response, selectivity assay for P. falciparum G6PD inhibitor project, biochemical, fluorescence (AID 504792); type: functional
Glucose-6-phosphate 1-dehydrogenase, sequence (P11413 whole entry): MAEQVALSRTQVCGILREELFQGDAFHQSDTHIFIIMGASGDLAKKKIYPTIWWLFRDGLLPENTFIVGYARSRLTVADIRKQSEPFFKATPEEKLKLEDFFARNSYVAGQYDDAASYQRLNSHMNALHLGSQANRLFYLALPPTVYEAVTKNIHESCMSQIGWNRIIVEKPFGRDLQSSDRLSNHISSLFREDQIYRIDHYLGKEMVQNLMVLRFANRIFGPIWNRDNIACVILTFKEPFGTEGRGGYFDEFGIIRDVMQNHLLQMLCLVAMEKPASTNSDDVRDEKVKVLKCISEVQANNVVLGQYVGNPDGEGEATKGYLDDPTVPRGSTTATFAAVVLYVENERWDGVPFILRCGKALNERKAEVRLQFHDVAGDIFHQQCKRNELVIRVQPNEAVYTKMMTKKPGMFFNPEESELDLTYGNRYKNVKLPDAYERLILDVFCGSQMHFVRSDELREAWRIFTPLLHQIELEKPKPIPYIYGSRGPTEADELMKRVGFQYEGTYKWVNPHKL

[18] = HeLa cell cytotoxicity, dose response, cytotoxicity control for MgcRacGAP inhibitor project (AID 624300); type: functional
[19] = target: T5, Rac GTPase-activating protein 1 (Homo sapiens, UniProt Q9H0H5); experiment: MgcRacGAP GTPase-activating activity inhibitors, confirmation, biochemical, ADP Hunter fluorescence, primary and confirmatory (AID 624330); type: functional
T5 sequence (Q9H0H5 whole entry): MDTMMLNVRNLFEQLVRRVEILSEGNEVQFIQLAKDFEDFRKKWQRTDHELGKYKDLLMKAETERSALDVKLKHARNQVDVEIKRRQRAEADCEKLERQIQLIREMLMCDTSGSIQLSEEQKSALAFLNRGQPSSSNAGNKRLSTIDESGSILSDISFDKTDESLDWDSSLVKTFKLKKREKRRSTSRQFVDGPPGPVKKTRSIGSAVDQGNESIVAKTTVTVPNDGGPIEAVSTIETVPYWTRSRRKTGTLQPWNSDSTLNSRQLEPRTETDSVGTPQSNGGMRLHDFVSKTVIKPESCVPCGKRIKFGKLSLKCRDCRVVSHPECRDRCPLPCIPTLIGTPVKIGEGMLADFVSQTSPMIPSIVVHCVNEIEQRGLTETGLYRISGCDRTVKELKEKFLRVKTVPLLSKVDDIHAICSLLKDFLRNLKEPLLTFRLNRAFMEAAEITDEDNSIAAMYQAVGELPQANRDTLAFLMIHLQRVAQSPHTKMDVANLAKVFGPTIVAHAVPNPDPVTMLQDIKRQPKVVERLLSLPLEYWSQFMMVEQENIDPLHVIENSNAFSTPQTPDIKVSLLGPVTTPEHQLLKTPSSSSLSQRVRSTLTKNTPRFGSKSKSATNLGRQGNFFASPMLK

[20] = target: Protein-tyrosine kinase 2-beta (Homo sapiens, UniProt Q14289);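 note: potency of inhibitors of PYK2 kinase phosphorylation of poly-GT substrate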
Protein-tyrosine kinase 2-beta, sequence (Q14289 whole entry): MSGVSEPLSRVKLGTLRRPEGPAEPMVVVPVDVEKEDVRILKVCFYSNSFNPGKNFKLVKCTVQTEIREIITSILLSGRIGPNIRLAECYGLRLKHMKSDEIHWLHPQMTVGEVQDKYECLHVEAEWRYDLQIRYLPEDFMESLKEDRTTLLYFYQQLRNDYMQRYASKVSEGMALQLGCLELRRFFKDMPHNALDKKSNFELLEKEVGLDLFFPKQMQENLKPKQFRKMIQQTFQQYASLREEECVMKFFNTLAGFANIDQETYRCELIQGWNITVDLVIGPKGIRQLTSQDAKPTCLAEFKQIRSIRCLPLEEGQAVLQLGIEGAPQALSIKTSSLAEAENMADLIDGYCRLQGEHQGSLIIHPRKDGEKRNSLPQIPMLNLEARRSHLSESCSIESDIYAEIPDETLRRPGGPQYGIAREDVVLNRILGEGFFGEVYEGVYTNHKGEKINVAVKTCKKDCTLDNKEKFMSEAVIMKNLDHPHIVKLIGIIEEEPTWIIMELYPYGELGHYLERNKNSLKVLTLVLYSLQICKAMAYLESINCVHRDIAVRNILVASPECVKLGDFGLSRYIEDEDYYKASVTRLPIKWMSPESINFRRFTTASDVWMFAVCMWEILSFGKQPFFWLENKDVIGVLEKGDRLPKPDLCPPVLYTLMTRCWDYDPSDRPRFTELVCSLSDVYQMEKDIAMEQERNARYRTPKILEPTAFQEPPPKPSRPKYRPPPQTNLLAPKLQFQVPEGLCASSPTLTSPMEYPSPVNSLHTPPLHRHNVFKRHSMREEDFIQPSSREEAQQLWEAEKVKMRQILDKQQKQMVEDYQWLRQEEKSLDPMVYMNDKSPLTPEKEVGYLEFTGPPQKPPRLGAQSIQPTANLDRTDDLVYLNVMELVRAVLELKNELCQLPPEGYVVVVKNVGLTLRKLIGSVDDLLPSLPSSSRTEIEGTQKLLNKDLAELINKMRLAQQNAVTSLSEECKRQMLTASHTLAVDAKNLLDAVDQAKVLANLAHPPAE

[21] = target: T6, Heat shock factor protein 1 (Mus musculus, UniProt P38532); experiment: HSF1 potentiators in luciferase reporter cells, confirmation, cell-based, NIH3T3, luminescence, dose retest (AID 435004); type: functional;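 note: stress induced by proteasome inhibitor MG132 added 30 min after compound; luciferase reporter driven by HSF1 response element in NIH3T3 cells; actives raise luminescence as potentiators of the MG132 stress response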
T6 sequence (P38532 whole entry): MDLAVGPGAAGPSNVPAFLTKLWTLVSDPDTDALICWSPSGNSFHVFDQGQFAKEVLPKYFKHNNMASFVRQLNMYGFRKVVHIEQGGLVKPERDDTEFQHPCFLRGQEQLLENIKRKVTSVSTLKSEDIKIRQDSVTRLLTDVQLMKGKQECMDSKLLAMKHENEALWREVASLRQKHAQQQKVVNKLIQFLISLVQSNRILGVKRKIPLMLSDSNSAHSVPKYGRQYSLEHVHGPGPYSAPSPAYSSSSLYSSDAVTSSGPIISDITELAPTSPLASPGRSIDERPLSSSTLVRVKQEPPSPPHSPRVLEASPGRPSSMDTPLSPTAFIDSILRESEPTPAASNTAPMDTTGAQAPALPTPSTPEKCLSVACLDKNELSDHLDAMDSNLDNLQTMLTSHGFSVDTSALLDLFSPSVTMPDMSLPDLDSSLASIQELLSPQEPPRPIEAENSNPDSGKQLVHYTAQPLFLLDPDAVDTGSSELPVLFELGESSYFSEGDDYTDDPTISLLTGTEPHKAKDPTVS

[22] = target: T7, Estrogen receptor beta (Homo sapiens, UniProt Q92731);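 note: recombinant ER-beta bound to coactivator SRC1 peptide in presence of estradiol agonist; inhibitors block coactivator peptide binding and lower the FRET signal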
T7 sequence (Q92731 whole entry): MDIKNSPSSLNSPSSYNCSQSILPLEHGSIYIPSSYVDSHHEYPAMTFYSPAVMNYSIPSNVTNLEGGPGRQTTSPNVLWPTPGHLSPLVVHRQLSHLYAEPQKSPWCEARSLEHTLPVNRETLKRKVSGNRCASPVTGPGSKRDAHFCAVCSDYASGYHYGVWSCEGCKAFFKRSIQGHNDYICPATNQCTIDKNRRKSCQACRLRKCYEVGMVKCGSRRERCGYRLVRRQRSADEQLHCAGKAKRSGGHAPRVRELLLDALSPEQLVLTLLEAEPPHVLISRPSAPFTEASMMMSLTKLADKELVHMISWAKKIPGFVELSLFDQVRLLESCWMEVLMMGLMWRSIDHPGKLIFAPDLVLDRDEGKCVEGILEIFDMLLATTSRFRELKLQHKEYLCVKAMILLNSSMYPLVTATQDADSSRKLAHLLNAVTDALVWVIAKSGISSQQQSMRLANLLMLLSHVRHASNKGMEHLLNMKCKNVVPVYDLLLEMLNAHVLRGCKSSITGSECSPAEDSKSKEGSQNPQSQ

[23] = target: T7, Estrogen receptor beta; experiment: ERβ–SRC-3 coactivator interaction inhibitors, confirmation, orthogonal assay, biochemical, ELISA, streptavidin-HRP readout (AID 1060)
[24] = target: T8, Galanin receptor type 3 (Homo sapiens, UniProt O60755); experiment: Fluorescence-based cell-based primary high throughput dose response assay to identify antagonists of the Galanin Receptor 3 (GalR3).; type: functional
T8 sequence (O60755 whole entry): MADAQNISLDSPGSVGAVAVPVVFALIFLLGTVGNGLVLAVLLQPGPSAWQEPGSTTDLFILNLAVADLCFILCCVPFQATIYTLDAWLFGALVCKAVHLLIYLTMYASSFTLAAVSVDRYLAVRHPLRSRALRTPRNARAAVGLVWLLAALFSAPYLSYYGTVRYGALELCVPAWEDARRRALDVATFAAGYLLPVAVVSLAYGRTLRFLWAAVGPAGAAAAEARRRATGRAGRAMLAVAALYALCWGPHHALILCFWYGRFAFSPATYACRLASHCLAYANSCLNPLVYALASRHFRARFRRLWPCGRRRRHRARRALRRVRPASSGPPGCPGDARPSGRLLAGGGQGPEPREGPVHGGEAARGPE

[25] = cells; type: functional, cell-based; conditions: HEK-CNG

Ephrin type-A receptor 4, sequence (Q03137 whole entry): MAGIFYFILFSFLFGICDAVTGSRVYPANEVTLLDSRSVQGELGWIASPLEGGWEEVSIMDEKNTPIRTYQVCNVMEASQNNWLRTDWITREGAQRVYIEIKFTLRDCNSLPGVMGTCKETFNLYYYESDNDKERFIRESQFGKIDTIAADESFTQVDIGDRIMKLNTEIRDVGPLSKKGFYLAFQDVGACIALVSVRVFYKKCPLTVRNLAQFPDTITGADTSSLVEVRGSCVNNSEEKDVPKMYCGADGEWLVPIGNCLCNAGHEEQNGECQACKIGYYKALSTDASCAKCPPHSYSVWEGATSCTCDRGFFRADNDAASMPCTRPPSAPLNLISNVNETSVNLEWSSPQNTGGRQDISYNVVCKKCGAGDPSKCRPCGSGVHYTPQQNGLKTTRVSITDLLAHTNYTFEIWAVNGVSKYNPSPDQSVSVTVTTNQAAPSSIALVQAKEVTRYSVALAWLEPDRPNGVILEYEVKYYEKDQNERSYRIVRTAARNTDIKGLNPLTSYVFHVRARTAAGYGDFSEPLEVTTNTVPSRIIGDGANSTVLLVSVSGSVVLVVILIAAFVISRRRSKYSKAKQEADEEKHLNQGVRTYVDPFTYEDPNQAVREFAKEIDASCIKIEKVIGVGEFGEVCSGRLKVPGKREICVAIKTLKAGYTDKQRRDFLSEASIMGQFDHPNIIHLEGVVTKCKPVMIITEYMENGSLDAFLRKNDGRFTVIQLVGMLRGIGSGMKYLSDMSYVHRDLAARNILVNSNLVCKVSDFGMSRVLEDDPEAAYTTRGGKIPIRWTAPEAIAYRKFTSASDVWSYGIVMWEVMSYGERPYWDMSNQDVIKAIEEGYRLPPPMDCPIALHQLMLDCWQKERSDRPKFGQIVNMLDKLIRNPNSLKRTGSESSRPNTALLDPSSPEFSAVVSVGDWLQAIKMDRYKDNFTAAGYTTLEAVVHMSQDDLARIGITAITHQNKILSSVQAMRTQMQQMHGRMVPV

N#CC(c1nc2ccccc2nc1N1CCCC1)S(=O)(=O)c1cccs1 (centres undefined)
IC50 [1]: > 100 µM (not active) | IC50 [2]: > 79 µM (inactive)

C[C@@H]1CN([C@H](C)CO)C(=O)c2cc(NC(=O)Nc3ccc(C(F)(F)F)cc3)ccc2O[C@@H](C)CCCCO[C@H]1CN(C)C(=O)c1ccccc1
AC50 [3]: 12.1 µM (active) | AC50 [4]: 37.5 µM (active) | AC50 [5]: 33.2 µM (active) | AC50 [6]: 35.6 µM (active) | AC50 [7]: 50.7 µM (active)

CC1CCCCN1C(=O)CSc1nnc(-c2ccccc2O)o1 (centres undefined)
EC50 [8]: > 67.5 µM (inactive) | EC50 [9]: > 67.5 µM (inactive)

Cc1ccc(N=Nc2cc(C)ccc2N)cc1
EC50 [10]: 0.149 µM (active) | EC50 [11]: 3.15 µM (active) | EC50 [8]: > 67.5 µM (inactive) | EC50 [9]: > 67.5 µM (inactive)

CCC(NC(=O)CCc1c(C)c2cc3c(C)c(C)oc3cc2oc1=O)C(=O)N[C@@H](Cc1ccccc1)C(=O)O (some centres undefined)
EC50 [12]: > 69.5 µM (inactive)

CC1CCC2(CC1)NC(=O)N(CC(=O)Nc1sc3c(c1C(N)=O)CCC3)C2=O (centres undefined)
IC50 [13]: 3.44 µM (active) | AC50 [14]: 10.9 µM (active)

O=C(O)c1ccc(N/N=C/c2cc(Br)cs2)cc1
AC50 [15]: 32 µM (inactive)

Cc1ccc(S(=O)(=O)/C(C#N)=C/c2c(N3CCOCC3)nc3ccccn3c2=O)cc1
IC50 [1]: > 100 µM (not active)

Nc1c(Br)cc(Br)c2c1nc(O)c1ccccc12
AC50 [14]: 18.1 µM (active)

Cc1ccc(-c2nc(O)c3sccc3n2)cc1
EC50 [8]: > 67.5 µM (inactive) | EC50 [9]: > 67.5 µM (inactive)

CCSC1=N/C(=C\c2ccc(-c3ccccc3[N+](=O)[O-])o2)C(=O)S1
IC50 [1]: > 100 µM (not active) | IC50 [16]: 0.967 µM (active)

COc1cccc(CNc2ccc3[nH]c(O)nc3c2)c1OCc1ccccc1Cl
IC50 [17]: > 80 µM (inactive) | CC50 [18]: 100 µM (active) | IC50 [19]: 69 µM (active)

Cc1ccc(NC(=O)CNc2ccccc2N2CCCC2=O)cc1S(=O)(=O)N1CCCCC1
AC50 [15]: 48.3 µM (active)

CCOC(=O)c1sc2c(c1C)C(c1cccs1)C1=C(O)CCCC1=N2 (centres undefined)
IC50 [20]: > 69.5 µM (not active) | EC50 [21]: 80.5 µM (active)

CC(=O)NC12CC3CC(C1)CC(C(=O)OCC(=O)Nc1ncc(Cl)c(C)c1Cl)(C3)C2
IC50 [22]: 9.36 µM (active) | IC50 [23]: < 0.023 µM (not active)

CC(C)(C)c1cc(/C=N/NC(=O)Cc2nc3ccccc3[nH]2)cc(C(C)(C)C)c1O
IC50 [16]: > 20 µM (inactive)

O=[N+]([O-])c1[nH]c2nc(O)nc-2cc1Cl
IC50 [24]: 16.7 µM (inactive) | EC50 [25]: > 29.9 µM (inactive)
